Where two headings read alike, the source gives them in different places.
How the values were obtained:
[1] = Anttila M., 1997; cited from earlier work
[2] = cited from earlier work
[3] = Study A: bioavailability of ospemifene after high caloric, high-fat breakfast versus fasted condition; conditions: for effect of food intake on bioavailability: 60 mg ospemifene tablet, single oral dose, high caloric (860 kcal), high-fat meal versus fasted, serum
Experimental: Blood samples for pharmacokinetic assessments were drawn during 72 hours at each study period. A washout period between the two treatments was at least 2 weeks. […] The meal provided approximately 150, 170 and 540 kcal from protein, carbohydrate and fat, respectively.

[4] = cited from earlier work; remark: listed apart in the source
[5] = 60 mg ospemifene tablet, single oral dose, low caloric (300 kcal), low-fat meal versus fasted, serum
Experimental: The composition of the light breakfast (approximately 300 kcal) was as follows: two slices of toast with margarine (5 g, fat content 60%), 6 slices (30 g) of cucumber, 240 ml skimmed (non-fat) milk and 100 ml orange juice. The test meal provided approximately 50, 180 and 70 kcal from protein, carbohydrate and fat, respectively.

Row | Structure (SMILES) | effect of food intake on absorption [1] | effect of food intake on bioavailability [1] | aqueous solubility [2] | effect of food intake on bioavailability [3] | tolerability ([4]; in vivo) | bioavailability ([4]; oral administration) | effect of food intake on bioavailability [5] | effect of food intake on ospemifene absorption (increase) ([3]; oral, food intake versus fasted)
1 | CN(C)CCOc1ccc(/C(=C(/CCCl)c2ccccc2)c2ccccc2)cc1 [toremifene] | retarded the absorption | did not have any positive effect | low aqueous solubility |  |  |  |  | 
2 | OCCOc1ccc(/C(=C(/CCCl)c2ccccc2)c2ccc(O)cc2)cc1 [4-hydroxy-ospemifene, 4-hydroxyospemifene] |  |  |  | substantial effect |  |  |  | 
3 | OCCOc1ccc(/C(=C(/CCCl)c2ccccc2)c2ccccc2)cc1 [ospemifene] |  |  | low aqueous solubility | enhanced | excellent tolerability | rather low | enhanced | 2-3 fold
